According to patent publication US4407812A, “Etheral imidazoles and use in treatment of thromboses” (Laboratoires Chauvin-Blache, priority 1980, dated 1983):
Where a name gives a salt, the structure may show the parent alone. One block for each compound: values may come before it.

What was measured:
[1] = Acute toxicity, LD50 on intraperitoneal administration to Swiss mice; conditions: mouse, in vivo, ip, mean ± 5% confidence interval
Excerpt: (§1) In Table VI are set forth results of the determination of the LD50 of Compound A on intraperitoneal administration to Wistar rats and Swiss mice.

[2] = target: T1, platelet thromboxane synthetase (Homo sapiens, UniProt P24557); test: Inhibition of platelet thromboxane synthetase (14C-arachidonic acid incubated with washed platelet suspension, TLC); assay type: cell-based; conditions: for IC50: 14C-arachidonic acid, 10 min, 37° C., pH 7.5, read-out: 50% inhibitory concentration (IC50)
T1 construct: endogenous in cells; host or cells: washed platelets from platelet-rich plasma of venous blood
T1 sequence (P24557 1-533): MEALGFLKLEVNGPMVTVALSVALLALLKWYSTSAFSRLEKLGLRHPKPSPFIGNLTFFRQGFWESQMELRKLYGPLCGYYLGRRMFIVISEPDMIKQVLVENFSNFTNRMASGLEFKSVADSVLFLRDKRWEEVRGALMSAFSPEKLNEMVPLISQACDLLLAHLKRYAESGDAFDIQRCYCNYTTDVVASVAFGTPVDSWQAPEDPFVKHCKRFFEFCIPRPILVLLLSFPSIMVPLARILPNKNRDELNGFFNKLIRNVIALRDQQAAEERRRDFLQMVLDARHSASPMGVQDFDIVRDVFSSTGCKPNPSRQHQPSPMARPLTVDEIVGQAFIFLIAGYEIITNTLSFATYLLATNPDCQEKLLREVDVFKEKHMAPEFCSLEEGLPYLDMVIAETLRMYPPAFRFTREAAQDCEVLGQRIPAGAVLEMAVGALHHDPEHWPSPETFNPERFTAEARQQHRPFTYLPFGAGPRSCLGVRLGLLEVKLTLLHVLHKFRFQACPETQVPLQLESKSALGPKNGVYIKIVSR
Experimental: 1.1 Inhibition of platelet thromboxane synthetase
Platelet rich plasma (PRP) is prepared by centrifugation of venous blood at 150 g×10 min. The platelets are sedimented at 2000 g×20 min. and washed in a tris-HCl buffer at pH 7.5 (15 mM) containing EDTA (1.5 mM), NaCl, (150 mM) and KCl (5 mM). The platelet pellet is then suspended in a volume of tris-HCl (50 mM) at pH 7.5 corresponding to one-half the original PRP volume. Aliquots of platelet suspension (0.5 ml) are incubated with 1 μg ^14 C-arachidonic acid (specific activity=50 mCi/mmole) as the Na salt for 10 min. at 37° C. in the presence or the absence of test material. On completion of the reaction, the incubate is cooled to 0°-4° C., made acidic and salted by addition of citric acid and NaCl and then extracted with 2×2 ml ethyl acetate. A PGE2 standard is added to the extract which, after evaporation to dryness, is submitted to a bidimensional chromatography over a thin layer of silica (Merck F 254) in the systems: (1) benzene/dioxan/acetic acid (60:30:3); (2) chloroform/methanol/acetic acid/water (90:8:1:0.8).
The PGE2 standard is visualized with phosphomolybdic acid in the hot. The radioactivity corresponding to the metabolites of arachidonic acid is measured with a Berthold scanner. […]

[3] = test system: arachidonic acid-induced platelet aggregation; test: Ex vivo platelet aggregation in rabbits (arachidonic acid-induced); parameters: species or system rabbit; conditions: 5 mg/kg subcutaneous, two consecutive days, 2 hrs after second administration, arachidonic acid 2 mM
Experimental: 2.1 Ex vivo platelet aggregation in rabbits
Groups of 3 male rabbits are treated subcutaneously for two consecutive days and their plasma is taken two hrs after the second administration. Arachidonic acid-induced (2 mM) platelet aggregation is measured by the turbidimetric method according to Born.

[4] = Bleeding time (ear) in rabbits; assay type: in vivo, rabbit; conditions: 5 mg/kg subcutaneous, mean ± standard deviation
Experimental: 2.2 Bleeding time (ear) in rabbits
Groups of 3 male rabbits are treated subcutaneously with the test materials. Bleeding time (BT) is determined just before, and then 2 hours and 4 hours after their administration according to a standard procedure, by a "blind" acting experimenter.

[5] = Acute toxicity, LD50 on intraperitoneal administration to Wistar rats; conditions: rat, in vivo, ip, mean ± 5% confidence interval
Excerpt: as §1

[6] = test system: collagen-induced platelet aggregation; test: Inhibition of collagen-induced platelet aggregation; assay type: cell-based; conditions: Homo sapiens, collagen 20 μg, control 100
Experimental: (§2) 3--Inhibition of collagen-induced platelet aggregation and determination of the inhibition of thromboxane synthesis.
(§3) Venous blood sampled from volunteers is collected on sodium citrate. The platelet rich plasma (PRP) is prepared by centrifugation at 150 g×10 min.
(§4) 300 μl PRP are incubated in siliconized tubes in an aggregometer in the presence or the absence of test material dissolved in 100 μl buffer, and 20 μg collagen (Stago) are then added. Platelet aggregation is recorded by the decrease of the optical density. After 4 minutes, an acetylsalicylic acid solution (2×10^-4 M final) is added to block the synthesis of prostanoids, and thromboxane B2 is titrated in the liquid phase of the incubate by radioimmunoassay.

thromboxane synthesis = test: Inhibition of thromboxane synthesis in collagen-stimulated PRP (thromboxane B2 radioimmunoassay); assay type: cell-based, human; conditions: collagen 20 μg, control 900
Experimental: as §2, §3, §4

SMILES: CCCCCC(O)/C=C/n1ccnc1 (racemic) [Compound A, (E)-1-(3-hydroxy-octen-1-yl)imidazole (racemic)]
- LD50 ([1]; F): 164 ± 6 mg/kg
- LD50 ([1]; M): 166 ± 7 mg/kg
- IC50 ([2]; platelet suspension): 2500 nM
- Deaggregation rate ([3]; controls 5): 3 arbitrary units
- Maximum aggregation ([3]; controls 40): 28 % of maximum aggregation
- Aggregation rate ([3]; controls 56): 32 arbitrary units
- Bleeding time, Time 2 hours ([4]; 2 hours after administration, controls 85 ± 31): 165 ± 38 s
- Bleeding time, Time 4 hours ([4]; 4 hours after administration, controls 87 ± 29): 102 ± 19 s
- Bleeding time, Time 0 ([4]; just before administration, controls 70 ± 23): 80 ± 27 s
- LD50 ([5]; F): 250 ± 16 mg/kg
- LD50 ([5]; M): 270 ± 12 mg/kg

- IC50 ([2]; platelet suspension): 1500 nM
SMILES: CCCCCC(/C=C/n1ccnc1)OC(=O)c1ccccc1 (stereo not drawn) [C]

SMILES: CCCCCC(/C=C/n1ccnc1)OC(=O)c1cccnc1 (stereo not drawn) [Compound B, (E)-1-(3-hydroxy-octen-1-yl)imidazole nicotinic ester dihydrochloride]
- activity at 10 µM ([6]; 10^-5 M): 7%
- activity at 1 µM ([6]; 10^-6 M): 50%
- IC50 ([2]; platelet suspension): 1000 nM
- T × B2 formed (thromboxane synthesis; 10^-5 M): 100 pmole/ml PRP
- T × B2 formed (thromboxane synthesis; 10^-6 M): 400 pmole/ml PRP

- IC50 ([2]; platelet suspension): 1500 nM
SMILES: CCCCCC(/C=C/n1ccnc1)OC(C)=O (stereo not drawn) [D]

- IC50 ([2]; platelet suspension): 1500 nM
SMILES: CCCCCC(=O)OC(/C=C/n1ccnc1)CCCCC (stereo not drawn) [E]

- IC50 ([2]; platelet suspension): 1000 nM
SMILES: CCCCCC(/C=C/n1ccnc1)OCc1ccccc1 (stereo not drawn) [F]

- IC50 ([2]; platelet suspension): 1500 nM
SMILES: CCCCCC(/C=C/n1ccnc1)OCc1ccccn1 (stereo not drawn) [G, (E)-1-(3-hydroxy-octen-1-yl)imidazole 2-pyridyl methyl ether fumarate]

SMILES: c1c[nH]cn1 [Imidazole, imidazole]
- inhibition of the formation of thromboxane A2 (FIG. 2) ([2]; measured by its stable degradation product): inhibits the formation of thromboxane A2
- PGE2 formed concomitantly to thromboxane inhibition (FIG. 2) ([2]; platelet suspension): increasing amounts of PGE2 are formed
- IC50 ([2]; platelet suspension): 50000 nM
